Data taken from PMC4854315, “Discovery of a novel allosteric inhibitor-binding site in ERK5: comparison with the canonical kinase hinge ATP-binding site” (Acta Crystallographica. Section D, Structural Biology, 2016).

Assays:
Assay in all cases: Z'-LYTE kinase panel
Format in all cases: biochemical
[1] = molecular target: T1, PIM2 (Homo sapiens, UniProt Q9P1W9)
T1 construct: purchased ThermoFisher (SelectScreen, Z'-LYTE)
Summary of the method: (§1)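 Readout is percentage inhibition, obtained from the standard Z′-LYTE protocol with test compound present at 10 µM; screened within a panel of 225 kinases.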

[2] = molecular target: T2, NTRK3 (TRKC) (Homo sapiens, UniProt Q16288)
T2 construct: purchased ThermoFisher (SelectScreen, Z'-LYTE)
Summary of the method: as §1

[3] = molecular target: T3, ROCK2 (Homo sapiens, UniProt O75116)
T3 construct: purchased ThermoFisher (SelectScreen, Z'-LYTE)
Summary of the method: as §1

[4] = molecular target: T4, BLK (Homo sapiens, UniProt P51451)
T4 construct: purchased ThermoFisher (SelectScreen, Z'-LYTE)
Summary of the method: as §1

[5] = molecular target: T5, TYK2 (Homo sapiens, UniProt P29597); conditions: 10 µM compound, ATP Km app
T5 construct: purchased ThermoFisher (SelectScreen, Z'-LYTE)
Summary of the method: as §1

[6] = molecular target: T6, STK4 (MST1) (Homo sapiens, UniProt Q13043)
T6 construct: purchased ThermoFisher (SelectScreen, Z'-LYTE)
T6 sequence (Q13043 1-487): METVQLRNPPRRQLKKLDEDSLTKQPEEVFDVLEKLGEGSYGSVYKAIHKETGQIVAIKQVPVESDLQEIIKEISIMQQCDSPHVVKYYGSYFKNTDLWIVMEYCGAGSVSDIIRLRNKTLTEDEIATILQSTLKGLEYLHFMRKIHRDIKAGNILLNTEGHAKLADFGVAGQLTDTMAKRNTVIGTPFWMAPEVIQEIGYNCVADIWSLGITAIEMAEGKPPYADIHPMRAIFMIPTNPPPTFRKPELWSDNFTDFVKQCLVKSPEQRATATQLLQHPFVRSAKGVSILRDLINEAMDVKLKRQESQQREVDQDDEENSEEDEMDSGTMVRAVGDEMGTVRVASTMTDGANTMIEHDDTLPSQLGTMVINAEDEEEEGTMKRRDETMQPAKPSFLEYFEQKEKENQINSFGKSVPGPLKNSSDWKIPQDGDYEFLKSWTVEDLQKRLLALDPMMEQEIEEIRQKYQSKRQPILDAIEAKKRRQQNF
Summary of the method: as §1

[7] = molecular target: T7, MAPK10 (JNK3) (Homo sapiens, UniProt P53779); conditions: 10 µM compound; ATP 100
T7 construct: purchased ThermoFisher (SelectScreen, Z'-LYTE)
Summary of the method: as §1

[8] = molecular target: T8, HIPK1 (Myak) (Homo sapiens, UniProt Q86Z02)
T8 construct: purchased ThermoFisher (SelectScreen, Z'-LYTE)
Summary of the method: as §1

[9] = molecular target: T9, FGFR3 (Homo sapiens, UniProt P22607)
T9 construct: purchased ThermoFisher (SelectScreen, Z'-LYTE)
Summary of the method: as §1

[10] = molecular target: T10, STK22D (TSSK1) (Homo sapiens, UniProt Q9BXA7)
T10 construct: purchased ThermoFisher (SelectScreen, Z'-LYTE)
T10 sequence (Q9BXA7 1-367): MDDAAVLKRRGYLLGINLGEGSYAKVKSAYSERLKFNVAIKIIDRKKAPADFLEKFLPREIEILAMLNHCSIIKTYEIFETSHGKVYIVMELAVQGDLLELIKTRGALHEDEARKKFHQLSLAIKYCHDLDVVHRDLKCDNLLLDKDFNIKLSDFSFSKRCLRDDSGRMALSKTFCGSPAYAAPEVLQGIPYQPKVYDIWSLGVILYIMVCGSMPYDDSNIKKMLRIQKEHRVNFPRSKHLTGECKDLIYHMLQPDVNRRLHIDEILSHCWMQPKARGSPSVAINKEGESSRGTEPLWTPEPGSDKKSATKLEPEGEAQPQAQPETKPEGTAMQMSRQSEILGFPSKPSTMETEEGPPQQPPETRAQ
Summary of the method: as §1

[11] = molecular target: T11, STK24 (MST3) (Homo sapiens, UniProt Q9Y6E0)
T11 construct: purchased ThermoFisher (SelectScreen, Z'-LYTE)
Summary of the method: as §1

[12] = molecular target: T12, EGFR (ErbB1) (Homo sapiens, UniProt P00533)
T12 construct: purchased ThermoFisher (SelectScreen, Z'-LYTE)
Summary of the method: as §1

[13] = molecular target: T13, PRKCB1 (PKC beta I) (Homo sapiens, UniProt P05771)
T13 construct: purchased ThermoFisher (SelectScreen, Z'-LYTE)
Summary of the method: as §1

[14] = molecular target: T14, MAPK1 (ERK2) (Homo sapiens, UniProt P28482)
T14 construct: purchased ThermoFisher (SelectScreen, Z'-LYTE)
Summary of the method: as §1

[15] = molecular target: T15, NTRK1 (TRKA) (Homo sapiens, UniProt P04629)
T15 construct: purchased ThermoFisher (SelectScreen, Z'-LYTE)
Summary of the method: as §1

[16] = molecular target: T16, CLK3 (Homo sapiens, UniProt P49761)
T16 construct: purchased ThermoFisher (SelectScreen, Z'-LYTE)
Summary of the method: as §1

[17] = molecular target: T17, BTK (Homo sapiens, UniProt Q06187)
T17 construct: purchased ThermoFisher (SelectScreen, Z'-LYTE)
Summary of the method: as §1

[18] = molecular target: T18, PRKCE (PKC epsilon) (Homo sapiens, UniProt Q02156)
T18 construct: purchased ThermoFisher (SelectScreen, Z'-LYTE)
T18 sequence (Q02156 1-737): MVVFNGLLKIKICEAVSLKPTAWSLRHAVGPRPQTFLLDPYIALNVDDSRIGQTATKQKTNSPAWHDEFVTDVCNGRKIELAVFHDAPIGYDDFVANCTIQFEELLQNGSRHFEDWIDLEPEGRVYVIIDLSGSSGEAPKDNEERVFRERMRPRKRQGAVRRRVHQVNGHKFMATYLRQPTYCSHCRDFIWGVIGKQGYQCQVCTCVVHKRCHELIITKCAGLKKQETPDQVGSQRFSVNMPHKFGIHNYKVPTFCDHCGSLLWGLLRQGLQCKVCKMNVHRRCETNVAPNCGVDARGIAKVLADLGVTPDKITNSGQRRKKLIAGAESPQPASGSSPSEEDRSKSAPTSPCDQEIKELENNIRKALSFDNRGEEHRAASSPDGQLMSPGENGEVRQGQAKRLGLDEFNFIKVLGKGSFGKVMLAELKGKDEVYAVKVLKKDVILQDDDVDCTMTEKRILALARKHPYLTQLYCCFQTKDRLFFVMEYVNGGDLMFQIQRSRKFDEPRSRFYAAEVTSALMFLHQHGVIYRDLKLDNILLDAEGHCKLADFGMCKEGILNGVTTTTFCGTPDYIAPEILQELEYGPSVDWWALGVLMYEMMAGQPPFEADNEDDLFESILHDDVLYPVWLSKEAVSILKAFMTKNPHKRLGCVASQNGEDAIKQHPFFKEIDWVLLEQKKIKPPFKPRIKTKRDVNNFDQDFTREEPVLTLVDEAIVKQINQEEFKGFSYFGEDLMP
Summary of the method: as §1

[19] = molecular target: T19, SRC (Homo sapiens, UniProt P12931)
T19 construct: purchased ThermoFisher (SelectScreen, Z'-LYTE)
Summary of the method: as §1

[20] = molecular target: T20, GRK6 (Homo sapiens, UniProt P43250)
T20 construct: purchased ThermoFisher (SelectScreen, Z'-LYTE)
Summary of the method: as §1

T3 sequence (O75116 whole entry): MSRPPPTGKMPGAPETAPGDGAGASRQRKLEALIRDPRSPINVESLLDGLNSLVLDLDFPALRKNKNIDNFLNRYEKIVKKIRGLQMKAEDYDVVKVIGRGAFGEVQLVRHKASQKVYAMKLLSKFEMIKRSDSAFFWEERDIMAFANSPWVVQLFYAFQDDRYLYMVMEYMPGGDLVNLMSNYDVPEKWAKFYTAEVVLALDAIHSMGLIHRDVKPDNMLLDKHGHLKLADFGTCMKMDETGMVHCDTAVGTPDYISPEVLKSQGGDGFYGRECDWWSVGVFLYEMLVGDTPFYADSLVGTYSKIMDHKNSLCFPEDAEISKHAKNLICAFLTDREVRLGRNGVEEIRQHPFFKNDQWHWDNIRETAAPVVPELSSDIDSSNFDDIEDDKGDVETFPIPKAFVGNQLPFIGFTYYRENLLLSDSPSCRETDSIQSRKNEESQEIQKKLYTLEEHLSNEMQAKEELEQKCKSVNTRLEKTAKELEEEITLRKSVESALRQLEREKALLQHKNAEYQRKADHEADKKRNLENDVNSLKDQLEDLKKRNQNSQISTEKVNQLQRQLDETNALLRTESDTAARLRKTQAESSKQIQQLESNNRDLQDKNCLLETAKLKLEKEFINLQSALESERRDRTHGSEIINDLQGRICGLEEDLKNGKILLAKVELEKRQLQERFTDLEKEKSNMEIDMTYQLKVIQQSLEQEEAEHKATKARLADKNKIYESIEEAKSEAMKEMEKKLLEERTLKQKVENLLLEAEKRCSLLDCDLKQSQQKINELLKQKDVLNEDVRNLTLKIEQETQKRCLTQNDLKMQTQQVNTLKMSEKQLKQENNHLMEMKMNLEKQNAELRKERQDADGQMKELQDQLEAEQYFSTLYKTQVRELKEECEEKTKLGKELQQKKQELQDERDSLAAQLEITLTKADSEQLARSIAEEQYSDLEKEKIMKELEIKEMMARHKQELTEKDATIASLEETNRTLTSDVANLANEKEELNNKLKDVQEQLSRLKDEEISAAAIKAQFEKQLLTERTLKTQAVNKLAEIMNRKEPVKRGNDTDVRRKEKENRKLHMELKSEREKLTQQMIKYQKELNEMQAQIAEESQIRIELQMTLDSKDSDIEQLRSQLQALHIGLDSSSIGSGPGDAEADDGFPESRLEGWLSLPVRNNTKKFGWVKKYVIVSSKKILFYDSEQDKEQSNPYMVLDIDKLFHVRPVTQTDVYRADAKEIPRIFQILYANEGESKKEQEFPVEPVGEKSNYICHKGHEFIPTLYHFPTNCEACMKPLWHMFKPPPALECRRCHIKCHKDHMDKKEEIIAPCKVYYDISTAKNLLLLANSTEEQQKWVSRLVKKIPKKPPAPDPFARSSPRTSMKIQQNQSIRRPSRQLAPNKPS
T20 sequence (P43250 whole entry): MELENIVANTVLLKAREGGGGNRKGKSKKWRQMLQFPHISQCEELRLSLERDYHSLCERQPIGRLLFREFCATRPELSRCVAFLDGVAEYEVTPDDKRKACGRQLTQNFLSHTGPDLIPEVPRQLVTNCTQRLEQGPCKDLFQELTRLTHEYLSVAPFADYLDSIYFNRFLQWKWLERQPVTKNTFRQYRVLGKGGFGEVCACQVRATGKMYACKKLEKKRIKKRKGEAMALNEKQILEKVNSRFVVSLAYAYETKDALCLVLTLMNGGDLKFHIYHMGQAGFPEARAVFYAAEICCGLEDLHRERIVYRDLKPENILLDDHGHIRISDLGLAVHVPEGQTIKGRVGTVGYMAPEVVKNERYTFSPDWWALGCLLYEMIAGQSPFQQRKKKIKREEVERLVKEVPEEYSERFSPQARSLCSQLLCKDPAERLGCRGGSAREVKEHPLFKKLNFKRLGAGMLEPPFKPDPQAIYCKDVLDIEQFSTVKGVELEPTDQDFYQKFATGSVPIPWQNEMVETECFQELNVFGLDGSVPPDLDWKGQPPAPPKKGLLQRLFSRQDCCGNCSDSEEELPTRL
T13 sequence (P05771 whole entry): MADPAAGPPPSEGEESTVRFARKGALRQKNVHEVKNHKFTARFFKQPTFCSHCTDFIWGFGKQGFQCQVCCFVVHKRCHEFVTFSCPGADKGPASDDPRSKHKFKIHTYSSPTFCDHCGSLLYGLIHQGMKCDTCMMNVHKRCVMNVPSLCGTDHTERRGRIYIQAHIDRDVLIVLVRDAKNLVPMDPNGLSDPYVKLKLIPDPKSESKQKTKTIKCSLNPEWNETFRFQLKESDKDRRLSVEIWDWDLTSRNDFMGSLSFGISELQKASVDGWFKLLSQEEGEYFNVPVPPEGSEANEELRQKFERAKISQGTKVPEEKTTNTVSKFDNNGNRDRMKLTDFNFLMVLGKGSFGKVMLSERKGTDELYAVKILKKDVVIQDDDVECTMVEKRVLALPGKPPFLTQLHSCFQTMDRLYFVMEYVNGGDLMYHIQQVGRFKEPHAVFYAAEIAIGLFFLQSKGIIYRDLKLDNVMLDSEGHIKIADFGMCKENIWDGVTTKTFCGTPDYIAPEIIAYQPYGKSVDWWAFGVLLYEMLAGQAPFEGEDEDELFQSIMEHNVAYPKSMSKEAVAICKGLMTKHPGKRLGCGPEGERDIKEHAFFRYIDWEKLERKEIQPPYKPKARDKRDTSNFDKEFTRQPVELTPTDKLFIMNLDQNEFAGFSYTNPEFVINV
T8 sequence (Q86Z02 whole entry): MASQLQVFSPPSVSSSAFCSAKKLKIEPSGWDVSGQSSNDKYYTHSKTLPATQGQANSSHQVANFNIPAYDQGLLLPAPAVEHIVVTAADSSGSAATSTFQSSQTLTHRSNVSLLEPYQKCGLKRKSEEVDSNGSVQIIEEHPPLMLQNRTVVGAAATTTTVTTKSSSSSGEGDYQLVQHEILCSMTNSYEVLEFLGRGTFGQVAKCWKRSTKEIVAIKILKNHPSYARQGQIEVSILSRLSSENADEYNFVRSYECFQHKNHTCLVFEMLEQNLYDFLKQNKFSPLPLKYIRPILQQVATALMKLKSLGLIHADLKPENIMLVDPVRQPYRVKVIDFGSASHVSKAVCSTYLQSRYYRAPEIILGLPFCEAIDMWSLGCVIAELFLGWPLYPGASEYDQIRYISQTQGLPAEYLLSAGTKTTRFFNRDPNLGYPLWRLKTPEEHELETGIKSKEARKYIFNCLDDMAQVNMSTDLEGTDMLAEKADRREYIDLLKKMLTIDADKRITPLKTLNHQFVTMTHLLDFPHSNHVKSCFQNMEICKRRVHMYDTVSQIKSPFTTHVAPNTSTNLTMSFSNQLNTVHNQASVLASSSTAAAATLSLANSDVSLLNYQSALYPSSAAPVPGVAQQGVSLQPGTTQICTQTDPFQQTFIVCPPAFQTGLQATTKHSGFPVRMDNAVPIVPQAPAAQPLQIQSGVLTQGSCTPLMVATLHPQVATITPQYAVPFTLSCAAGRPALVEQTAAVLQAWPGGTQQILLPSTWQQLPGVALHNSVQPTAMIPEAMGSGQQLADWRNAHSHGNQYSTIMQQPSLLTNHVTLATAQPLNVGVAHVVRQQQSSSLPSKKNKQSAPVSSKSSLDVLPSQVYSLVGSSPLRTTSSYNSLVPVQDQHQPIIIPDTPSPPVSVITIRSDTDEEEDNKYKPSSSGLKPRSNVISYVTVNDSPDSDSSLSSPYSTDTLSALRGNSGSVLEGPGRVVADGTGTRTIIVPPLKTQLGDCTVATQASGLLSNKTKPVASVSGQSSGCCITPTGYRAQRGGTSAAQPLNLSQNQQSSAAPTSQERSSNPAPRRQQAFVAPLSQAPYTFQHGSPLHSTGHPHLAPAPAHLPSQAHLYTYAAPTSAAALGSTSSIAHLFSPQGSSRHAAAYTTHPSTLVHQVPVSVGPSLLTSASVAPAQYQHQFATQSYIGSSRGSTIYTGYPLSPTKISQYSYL
T15 sequence (P04629 33-796): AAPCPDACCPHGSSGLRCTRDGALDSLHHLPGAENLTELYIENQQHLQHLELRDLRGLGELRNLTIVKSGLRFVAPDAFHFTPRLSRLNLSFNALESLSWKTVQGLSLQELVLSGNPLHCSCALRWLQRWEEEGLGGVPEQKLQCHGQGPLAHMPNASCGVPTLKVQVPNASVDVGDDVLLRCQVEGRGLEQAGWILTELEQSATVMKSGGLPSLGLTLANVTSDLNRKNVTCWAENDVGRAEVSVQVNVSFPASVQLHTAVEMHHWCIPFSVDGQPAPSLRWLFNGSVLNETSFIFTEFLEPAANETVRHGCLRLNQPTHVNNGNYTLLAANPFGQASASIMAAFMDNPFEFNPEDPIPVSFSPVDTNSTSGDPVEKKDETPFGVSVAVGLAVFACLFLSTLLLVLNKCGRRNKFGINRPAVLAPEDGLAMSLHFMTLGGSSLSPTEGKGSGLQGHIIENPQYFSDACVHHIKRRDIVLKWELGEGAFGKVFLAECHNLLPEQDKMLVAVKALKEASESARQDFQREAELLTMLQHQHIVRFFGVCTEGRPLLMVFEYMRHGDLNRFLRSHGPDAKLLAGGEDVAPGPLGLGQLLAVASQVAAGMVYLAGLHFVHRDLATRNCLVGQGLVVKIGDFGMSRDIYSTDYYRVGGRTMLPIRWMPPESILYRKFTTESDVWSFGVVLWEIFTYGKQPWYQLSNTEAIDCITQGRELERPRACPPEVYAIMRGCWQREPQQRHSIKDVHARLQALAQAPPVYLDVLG
T11 sequence (Q9Y6E0 whole entry): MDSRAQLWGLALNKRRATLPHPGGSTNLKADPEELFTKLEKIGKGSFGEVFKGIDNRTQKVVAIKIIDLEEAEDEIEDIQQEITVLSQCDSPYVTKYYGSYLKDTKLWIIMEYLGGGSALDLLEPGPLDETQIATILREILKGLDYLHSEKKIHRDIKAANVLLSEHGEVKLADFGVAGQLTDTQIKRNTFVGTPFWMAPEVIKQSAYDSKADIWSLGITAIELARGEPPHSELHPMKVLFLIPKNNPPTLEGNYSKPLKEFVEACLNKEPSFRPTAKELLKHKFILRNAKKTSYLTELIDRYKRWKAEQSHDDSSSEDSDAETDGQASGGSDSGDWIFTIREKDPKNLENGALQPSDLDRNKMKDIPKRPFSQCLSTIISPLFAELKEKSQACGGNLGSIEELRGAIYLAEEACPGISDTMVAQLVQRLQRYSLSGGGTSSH

Compound	inhibition at 10 µM [1] [%]	inhibition at 10 µM [2] [%]	inhibition at 10 µM [3] [%]	inhibition at 10 µM [4] [%]	inhibition at 10 µM [5] [%]	inhibition at 10 µM [6] [%]	inhibition at 10 µM [7] [%]	inhibition at 10 µM [8] [%]	inhibition at 10 µM [9] [%]	inhibition at 10 µM [10] [%]	inhibition at 10 µM [11] [%]	inhibition at 10 µM [12] [%]	inhibition at 10 µM [13] [%]	inhibition at 10 µM [14] [%]	inhibition at 10 µM [15] [%]	inhibition at 10 µM [16] [%]	inhibition at 10 µM [17] [%]	inhibition at 10 µM [18] [%]	inhibition at 10 µM [19] [%]	inhibition at 10 µM [20] [%]	also measured
XMD8-92 [Compound 2, reference compound]	–	–	–	–	–	–	–	–	–	–	–	–	–	–	–	–	–	–	–	–	PIM2 % Inhibition ([1]; 10 µM compound, ATP Km app): 22%; NTRK3 (TRKC) % Inhibition ([2]; 10 µM compound, ATP Km app): 64%; ROCK2 % Inhibition ([3]; 10 µM compound, ATP Km app): 93%; BLK % Inhibition ([4]; 10 µM compound, ATP Km app): 38%; TYK2 % Inhibition [5]: 36%; STK4 (MST1) % Inhibition ([6]; 10 µM compound, ATP Km app): 6%; MAPK10 (JNK3) % Inhibition [7]: 9%; HIPK1 (Myak) % Inhibition ([8]; 10 µM compound, ATP Km app): 6%; FGFR3 % Inhibition ([9]; 10 µM compound, ATP Km app): 9%; STK22D (TSSK1) % Inhibition ([10]; 10 µM compound, ATP Km app): 11%; STK24 (MST3) % Inhibition ([11]; 10 µM compound, ATP Km app): 30%; EGFR (ErbB1) % Inhibition ([12]; 10 µM compound, ATP Km app): -11%; PRKCB1 (PKC beta I) % Inhibition ([13]; 10 µM compound, ATP Km app): 13%; MAPK1 (ERK2) % Inhibition ([14]; 10 µM compound, ATP Km app): 9%; NTRK1 (TRKA) % Inhibition ([15]; 10 µM compound, ATP Km app): 43%; CLK3 % Inhibition ([16]; 10 µM compound, ATP Km app): 5.55%; BTK % Inhibition ([17]; 10 µM compound, ATP Km app): 35%; PRKCE (PKC epsilon) % Inhibition ([18]; 10 µM compound, ATP Km app): 1.55%; SRC % Inhibition ([19]; 10 µM compound, ATP Km app): 11%; GRK6 % Inhibition ([20]; 10 µM compound, ATP Km app): 1.47%
Cc1ncc(-c2nc(Nc3ccc(C(=O)NCCN4CCCCC4)cc3)ncc2F)n1C(C)C [Compound 3]	40	79	40	65	101	82	77	83	54	81	89	13	86	39	76	71	59	45	79	53	–
Cc1cc(Nc2nc(N)nn2C(=O)NC(C)C)ccc1Cl [Compound 5]	-13	52	37	22	> 80	65	2.76	-2.24	13	21	27	1	2.25	6	36	12	11	-17	26	-0.556	TYK2 % Inhibition ([5]; listed as SN1109056190, 10 µM): 94%
